Tests used:
[1] = system: adult patients diagnosed with autism or Asperger's disorder; test: Side effects and vital signs (blood pressure, pulse, oral temperature) during the oxytocin infusion challenge; type: in vivo, human
Method: (§1) All subjects were admitted into the General Clinical Research Center on the evening prior to each challenge. Following an overnight fast, the subject was awakened at 8:00 AM and an indwelling intravenous catheter inserted. At 8:30 AM vital signs were taken, and these continued to be monitored every half-hour. At 9:00 AM, 6 cc of blood were drawn and the oxytocin/placebo infusion was administered in a randomized double-blind fashion. The initial vial of Pitocin® (10 u/mL) combined aseptically with a 1.0 L bag of normal saline was first given at a rate of 10 mL/hr which is equivalent to a dose rate of 0.1 units/hour. The infusion was initiated at a low rate to minimize potential side effects, and the rate gradually titrated up. Specifically, the dose rate was titrated every 15 minutes by 25 mL/hour in the first hour, 50 mL/hour in the second hour, 100 mL/hour in the third hour, and held constant at the maximum rate of 700 mL/hr during the fourth hour. This created a range of dosing from 0.1 U/hour to 7 U/hour. See below:
(§2) Staff members were given specific instructions to discontinue increasing the rate of infusion if the patient experienced significant side effects. In order to assess possible cardiovascular effects, blood pressure and pulse were recorded every half hour. Oral temperature was recorded every hour. All fifteen subjects returned in 2-3 weeks for an identical challenge administered with the other infusion substance.
A repeated measure analysis of variance (ANOVA) was conducted looking at the two infusions (oxytocin vs. placebo) over time (0, 60, 120, 180 and 240 minutes). A logarithmic transformation was done for the repetitive behavior ratings because the data were not normally distributed. Baseline differences on the oxytocin vs. placebo days were examined using paired sample t-tests. Differences in response between patients with autism and patients with Asperger's disorder were examined using independent sample t-tests. […]

[2] = system: adult patients diagnosed with autism or Asperger's disorder; test: Oxytocin vs placebo 4-hour intravenous infusion challenge, rating of six repetitive behaviors; type: in vivo, human
Source text: To evaluate the role of oxytocin in treating autism spectrum disorders, fifteen adult patients (mean age=32.9 years, range=19.4-55.6) (14 male, 1 female) diagnosed with autism (N=6) or Asperger's disorder (N=9) received oxytocin and placebo challenges during visits separated by 2-3 weeks to the General Clinical Research Center of the Department of Psychiatry, Seaver Autism Research Center at the Mount Sinai School of Medicine (New York, N.Y.).
Patients and their guardians signed written informed consent agreements, and the study was carried out in accordance with the Declaration of Helsinki as adopted and promulgated by the National Institutes of Health. All patents were medically healthy, without a current or past history of schizophrenia, psychotic disorders, substance abuse, other Axis I mental disorders, or seizure disorders. Patients were of average intelligence, with a mean IQ (±SD) of 90.33 (±9.90) (range=74-110). Nine patients were medication free for greater than one year prior to the study; three patents were medication free for greater than six weeks prior to the study (one was previously on fluoxetine, one on sertraline and one on bupropion); and the remaining three patents were medication free for a minimum of two weeks prior to and throughout the study (one was previously on fluvoxamine and risperidone, one on sertraline and one on clonazepam).
Each individual subject underwent two identical challenge days in which they received a continuous infusion over 4 hours of synthetic oxytocin (Pitocin®) or placebo.
as §1
The combined solution, rotated in an infusion bottle to insure thorough mixing, was added to the system by a constant infusion pump to accurately control the rate of infusion.
as §2
Severity of repetitive autistic behaviors was evaluated using a method developed during past research with the autistic population. Six behaviors were assessed: need to know, repeating, ordering, need to tell/ask, self-injury, and touching. The ratings were completed at baseline (O), 60, 120, 180, and 240 minutes and reported. The frequency of each of the six repetitive behaviors was recorded using a four point ordinal scale with the following values: 0=never, 1=rarely, 2=sometimes, 3=constantly. These ratings were done following a 15 to 20 minute interview during which several other measures were administered and the rater had the opportunity to observe the patient's behavior in this domain. […]

[3] = baseline (0) to endpoint (240 minutes), 15 patients, FIG. 2

Compound: CC[C@H](C)[C@@H]1NC(=O)[C@H](Cc2ccc(O)cc2)NC(=O)[C@@H](N)CSSC[C@@H](C(=O)N2CCC[C@H]2C(=O)N[C@@H](CC(C)C)C(=O)NCC(N)=O)NC(=O)[C@H](CC(N)=O)NC(=O)[C@H](CCC(N)=O)NC1=O [oxytocin]
- effects of infusion on blood pressure, pulse, or temperature ([1]; 4-hour infusion, 0.1 U/hour to 7 U/hour): no significant effects
- side effects ([1]; 4-hour infusion, drowsiness, anxiety, depression, headache, tingling, backache, trembling, restlessness, stomach cramps, enuresis): mild
- relationship between presence or number of side effects and behavioral response ([1]; chi square analysis): no relationship
- individual dimensions of repetitive behavior, oxytocin versus placebo infusions over time ([2]; ANOVA of individual items, at p<0.05): no significant differences
- main effect for drug on repetitive behaviors ([2]; ANOVA, F=1.835, df=1, 13, p=0.199): no significant main effect
- total number of repetitive behaviors observed following administration ([2]; autistic study group, FIG. 1 (dashed line)): appears to decrease
- patients with an increase in repetitive behaviors [2, 3]: 1 patient
- patients with no change in repetitive behaviors [2, 3]: 1 patient
- response of patients with autism versus patients with Asperger's disorder following oxytocin infusion ([2]; independent sample t-test, t=0.687, df=13, p=0.504): did not differ
- number of different types of repetitive behavior at endpoint ([2]; individuals who responded to oxytocin, endpoint (240 minutes)): none or one
- reduction in repetitive behaviors over time following oxytocin compared to placebo ([2]; repeated measures ANOVA, 0-240 min, drug×time interaction F=3.487, df=4, 52, p=0.027, FIG. 1): significantly greater reduction
- touching behavior, oxytocin versus placebo over time ([2]; time×drug interaction F=2.444, df=4, 52, p=0.093 (p<0.10)): directional difference
- repeating behavior, oxytocin versus placebo over time ([2]; time×drug interaction F=2.70, df=4, 52, p=0.086 (p<0.10)): directional difference
